The source of these data is patent publication US9499614B2, “Methods for modulating protein glycosylation profiles of recombinant protein therapeutics using monosaccharides and oligosaccharides” (AbbVie, Inc., priority 2013, dated 2016).

Assay [1] relates to Cell Line 1. The assay can be described thus: 3 L laboratory-scale bioreactor culture of Cell Line 1, cell culture performance. It counts as cell-based, Chinese Hamster. As to the method: Two recombinant Chinese Hamster Ovary (CHO) cell lines expressing two different humanized monoclonal antibodies (Antibody 1, Antibody 2) were evaluated in two different culture vessels (shaker flasks and laboratory scale bioreactors). Both cell lines were of CHO DUX-B11 origin based on a dhfr (dihydrofolate reductase) expression system. Both cell lines were cultured in the same chemically defined basal media (CDBM), with Cell Line 1 also utilizing a chemically-defined feed media (CDFM). Each of the respective media were supplemented with selected monosaccharides and oligosaccharides to evaluate their potential impact on the resulting N-glycan oligosaccharide profile. In preparing the cultures, the cell lines were serially expanded through separate seed train inoculums to generate enough cells for inoculation.
Viable cell density (VCD) and cell viability values were measured through trypan blue exclusion via Cedex automated cell counters (Roche Applied Science, Indianapolis, Ind.), glucose and lactate values were measured with a ABL-805 (Radiometer Medical, Denmark) blood gas analyzer. Offline pH, dissolved oxygen (DO), and pCO2 measurements were performed with a ABL-805 (Radiometer Medical, Denmark) blood gas analyzer. Osmolality was measured on a Multi-Osmette 2430 osmometer (Precision Systems, Natick, Mass.).
Antibody titers were measured from crude cell culture harvests on a Poros A™ (Life Technologies, Carlsbad, Calif.) affinity column using an Agilent (Santa Clara, Calif.) 1200 Series HPLC, or equivalent, operating with a low pH, step elution gradient with detection at 280 nm. Absolute concentrations were assigned with respect to reference standard calibration curves.
(§1) 3 L scale-down model bioreactors were utilized to verify the impact of select sugars on the resulting protein glycosylation profiles. The concentration of the sucrose and tagatose was chosen to minimize any potential adverse impact on cell growth and productivity, but still facilitate a measurable modulation of the glycosylation profile. Cell culture process performance indicators were monitored and measured throughout the respective cultures. Viable cell density, cell viability, lactate, pCO2, osmolality, harvest titer, and harvest N-glycan oligosaccharide data were measured and reported.
Two recombinant Chinese Hamster Ovary (CHO) cell lines expressing two different recombinant glycoproteins were evaluated in two different cultures vessels (shaker flasks and 3 L laboratory scale bioreactors). Cell Line 1 expressed Antibody 1, Cell Line 2 expressed Dual Variable Domain Immunoglobulin 1 (DVD 1) and Cell Line 3 expressed Antibody 2. Antibodies 1 and 2 are IgG1 proteins, and DVD 1 is an immunoglobulin with two variable domains as documented previously (Wu C. et al., (2007) Nat. Biotechnol 25(11):1290-1297). All cell lines were of CHO DUX-B11 origin based on a dhfr (dihydrofolate reductase) expression system. All cell lines were cultured in the same chemically defined basal media. Cell lines 1 and 2 were fed with the same chemically-defined feed media, but Cell Line 1 was fed media that was formulated at a 50% higher concentration. Each of the respective media were supplemented with either sucrose or tagatose to evaluate their potential impact on the resulting N-glycan oligosaccharide profile. All sugars were purchased from Sigma-Aldrich (St. Louis, Mo.). In preparation of the cultures, the cell lines were serially expanded through separate seed train inoculums to generate enough cells for inoculation.
Viable cell density (VCD) and cell viability values were measured through trypan blue exclusion via Cedex automated cell counters (Roche Applied Science, Indianapolis, Ind.), glucose and lactate values were measured with a ABL-805 (Radiometer Medical, Denmark) blood gas analyzer. Offline pH, dissolved oxygen (DO), and pCO2 measurements were performed with an ABL-805 (Radiometer Medical, Denmark) blood gas analyzer. […]

For assay [2], the system named is Cell Line 1. The assay can be described thus: N-glycan oligosaccharide profiling, Cell Line 1 in 3 L laboratory-scale bioreactors. Type of assay: cell-based, Chinese Hamster. The settings on record: 50 mM supplement. As to the method: Purified antibodies subjected to additional analytical characterization were purified using MabSelect™ Protein A (GE Healthcare, Piscataway, N.J.) using a low pH, step elution gradient, followed by buffer exchange using Corning Lifesciences (Tewksbury, Mass.) Spin Concentrator X UF columns according to the manufacturers' recommended procedures.
Approximately 200 μg of Protein A purified samples from Cell Lines 1 and 2 were treated with N-glycanase at 37° C. overnight to remove the N-glycans from the protein. The protein was precipitated and the supernatant was taken for subsequent chemical derivatization of the reducing end of the released glycans with 2-aminobenzamide (2-AB) dye. Following the derivatization step, the excess label was removed using clean up cartridges and the samples were analyzed using normal phase HPLC with fluorescent detection. Mobile phase A was 100% acetonitrile and mobile phase B was 50 mM ammonium formate pH 4.4. The glycans were eluted from a polyamide column (Prozyme, Hayward, Calif.) using a shallow gradient. The labeled glycans were detected using a fluorescence detector with an excitation wavelength of 330 nm and an emission wavelength of 420 nm.
as §1
3 L scale laboratory bioreactors were utilized to verify the impact of sucrose, tagatose, or fructose on protein glycosylation profiles. Concentrations of the sugars were chosen to minimize any potential adverse impacts on cell growth and productivity, but still facilitate a measurable impact on the glycoform profile. Cell culture process performance indicators were monitored and measured throughout the study. Viable cell density, cell viability, lactate, pCO2, osmolality, harvest titer, and harvest N-glycan oligosaccharide data was measured and reported.

With `O=C(CO)[C@@H](O)[C@H](O)[C@H](O)CO` [fructose, reference compound], in the assay with Cell Line 1 [1] (50 mM supplement vs control), the Osmolality result is “only slightly higher”, the cell viability result was “no impact” and the viable cell density result is “no impact”. In the assay with Cell Line 1 [1] (50 mM supplement, relative to unsupplemented control), the “final harvest titer ratio” value is on record as 0.81. For the same molecule, the “changes in protein glycosylation compared to the control” value in the assay on Cell Line 1 [2] was “did not facilitate any significant changes in protein glycosylation”.
